In patent US8658668B2, “PI3 kinase/mTOR dual inhibitor” (Eli Lilly and Company, priority 2011, dated 2014):
pIC50: −log10 of the molar value.

Legend:
[1] = test system: HNXF 536 human tumor xenograft cells; assay: Oncotest tumor clonogenic assay, HNXF 536; type: cell-based; settings: colony formation, Head and Neck HNXF 536, squamous epithelium carcinoma, wd, read-out: Absolute IC50
[2] = test system: RXF 631 human tumor xenograft cells; assay: Oncotest tumor clonogenic assay, RXF 631; type: cell-based; settings: colony formation, Renal RXF 631, hypernephroid adeno carcinoma, wd, read-out: Absolute IC50
PI3Kb = PI3Kb (Homo sapiens, UniProt P42338); assay: PI3K beta Scintillation Proximity Assay; type: biochemical; settings: 40 μM ATP; n=2; read-out: absolute IC50
Sequence of PI3Kb (P42338 whole entry): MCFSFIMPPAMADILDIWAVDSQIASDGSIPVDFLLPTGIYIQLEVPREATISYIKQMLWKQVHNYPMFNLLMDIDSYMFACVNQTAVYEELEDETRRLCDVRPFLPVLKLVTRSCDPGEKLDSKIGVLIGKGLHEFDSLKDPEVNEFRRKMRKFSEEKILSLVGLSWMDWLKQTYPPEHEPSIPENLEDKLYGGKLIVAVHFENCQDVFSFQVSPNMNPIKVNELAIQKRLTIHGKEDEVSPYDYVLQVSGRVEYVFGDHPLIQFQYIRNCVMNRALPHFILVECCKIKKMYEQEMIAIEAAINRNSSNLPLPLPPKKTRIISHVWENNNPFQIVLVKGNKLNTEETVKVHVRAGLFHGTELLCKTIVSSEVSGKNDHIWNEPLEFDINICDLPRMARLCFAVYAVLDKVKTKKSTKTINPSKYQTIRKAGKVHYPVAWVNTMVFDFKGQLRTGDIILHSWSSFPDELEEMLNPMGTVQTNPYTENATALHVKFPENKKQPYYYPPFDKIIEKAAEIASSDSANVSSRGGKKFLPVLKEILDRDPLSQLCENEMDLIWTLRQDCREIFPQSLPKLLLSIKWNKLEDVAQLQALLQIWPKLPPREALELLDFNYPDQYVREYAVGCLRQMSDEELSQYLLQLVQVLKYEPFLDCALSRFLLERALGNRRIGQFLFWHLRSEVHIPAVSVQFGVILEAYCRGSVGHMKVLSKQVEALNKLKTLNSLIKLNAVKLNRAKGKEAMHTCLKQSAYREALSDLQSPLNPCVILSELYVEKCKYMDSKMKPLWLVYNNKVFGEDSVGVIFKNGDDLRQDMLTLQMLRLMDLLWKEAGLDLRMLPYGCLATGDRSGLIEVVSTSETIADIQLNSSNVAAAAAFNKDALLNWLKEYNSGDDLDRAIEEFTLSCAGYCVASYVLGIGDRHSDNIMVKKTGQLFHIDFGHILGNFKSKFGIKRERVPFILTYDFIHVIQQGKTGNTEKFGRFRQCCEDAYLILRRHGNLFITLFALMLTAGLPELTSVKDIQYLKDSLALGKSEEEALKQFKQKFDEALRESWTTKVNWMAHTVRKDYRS
Sequence of PI3Kb (P27986 whole entry partner): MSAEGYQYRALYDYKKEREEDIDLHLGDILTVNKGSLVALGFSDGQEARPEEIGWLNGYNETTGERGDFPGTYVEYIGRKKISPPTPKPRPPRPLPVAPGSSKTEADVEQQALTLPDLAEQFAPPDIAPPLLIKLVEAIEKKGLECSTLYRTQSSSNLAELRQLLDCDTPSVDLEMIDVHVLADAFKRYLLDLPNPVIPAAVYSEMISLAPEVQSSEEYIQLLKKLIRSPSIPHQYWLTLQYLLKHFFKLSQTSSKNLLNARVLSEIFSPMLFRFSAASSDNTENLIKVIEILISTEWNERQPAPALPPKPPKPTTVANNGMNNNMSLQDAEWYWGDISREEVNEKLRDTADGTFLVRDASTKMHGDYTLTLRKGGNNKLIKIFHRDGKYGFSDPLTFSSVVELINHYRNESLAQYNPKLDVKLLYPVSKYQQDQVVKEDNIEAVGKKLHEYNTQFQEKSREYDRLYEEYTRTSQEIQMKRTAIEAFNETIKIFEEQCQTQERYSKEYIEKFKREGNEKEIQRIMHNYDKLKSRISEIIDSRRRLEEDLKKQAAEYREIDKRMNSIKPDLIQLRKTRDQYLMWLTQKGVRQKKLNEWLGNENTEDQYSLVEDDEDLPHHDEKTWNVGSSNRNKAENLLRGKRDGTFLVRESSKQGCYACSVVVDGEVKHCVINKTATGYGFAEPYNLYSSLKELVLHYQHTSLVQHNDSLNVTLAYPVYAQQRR
Experimental: Use the PI3K beta Scintillation Proximity Assay (PI3K beta SPA) to determine the IC50 value against PI3Kb for a compound. This assay assesses the activity PI3K beta in the presence of compound inhibitors by measuring incorporation of γ-P33-ATP into phosphatidylinositol (4,5)bisphosphate (PIP2). Perform the kinase reactions in 40 μL reaction volumes in 96-well half-area flat bottom white with clear bottom polystyrene plates. Add PI3K beta to start the reaction. Final reaction conditions are 43.75 mM 2,2-bis(hydroxymethyl)-2,2′,2″-nitrilotriethanol (Bis-Tris) pH 7.0, 87.5 mM sodium chloride (NaCl), 1.76 mM polyethylene glycol octylphenyl ether (Triton™ X-100), 40 μM adenosine triphosphate (ATP), 1.0 mM magnesium chloride (MgCl2) and 1 μCi per well γ-P33-adenosine triphosphate (γ-P33-ATP), 6.0 nM PI3K beta human recombinant enzyme, 0.2 mM palmitoyl-oleoyl phosphatidylserine (POPS), 0.04 mM phosphatidylinositol (4,5)bisphosphate (PIP2), 4% DMSO and serial dilutions of compound (diluted 1:3 from 20,000 to 1 nM). […] Centrifuge plates for 30 min at 1000 revolutions per minute (RPM) and count radioactivity with a Wallac Microbeta Trilux normalized for P33. Derive the IC50 value for the compound by using percent inhibition data calculated using the reaction data relative to on-plate controls (active enzyme versus 62.5 millimolar EDTA-inhibited enzyme controls). […]

[3] = test system: LXFE 211 human tumor xenograft cells; assay: Oncotest tumor clonogenic assay, LXFE 211; type: cell-based; settings: colony formation, NSCLC LXFE 211, squamous cell carcinoma, ud, read-out: Absolute IC50
[4] = test system: PXF 1752 human tumor xenograft cells; assay: Oncotest tumor clonogenic assay, PXF 1752; type: cell-based; settings: colony formation, Pleuramesothelioma PXF 1752, pleuramesothelioma, read-out: Absolute IC50
[5] = test system: LXFA 1041 human tumor xenograft cells; assay: Oncotest tumor clonogenic assay, LXFA 1041; type: cell-based; settings: colony formation, NSCLC LXFA 1041, adeno carcinoma, md, read-out: Absolute IC50
[6] = test system: OVXF 1353 human tumor xenograft cells; assay: Oncotest tumor clonogenic assay, OVXF 1353; type: cell-based; settings: colony formation, Ovary OVXF 1353, adeno carcinoma, pd, read-out: Absolute IC50
[7] = test system: GXF 1172 human tumor xenograft cells; assay: Oncotest tumor clonogenic assay, GXF 1172; type: cell-based; settings: colony formation, Gastric GXF 1172, signet-ring cell carcinoma, pd, read-out: Absolute IC50
[8] = test system: MAXF 583 human tumor xenograft cells; assay: Oncotest tumor clonogenic assay, MAXF 583; type: cell-based; settings: colony formation, Mammary MAXF 583, ductual adeno carcinoma, md, read-out: Absolute IC50
[9] = test system: LXFA 629 human tumor xenograft cells; assay: Oncotest tumor clonogenic assay, LXFA 629; type: cell-based; settings: colony formation, NSCLC LXFA 629, adeno carcinoma, pd, read-out: Absolute IC50
AKT1(pT308) = assay: AlphaScreen SureFire p-AKT (Thr308) in U87MG cells; type: cell-based; settings: Homo sapiens, U-87 MG, 1 h, n = 4, read-out: AKT1(pT308) Absolute IC50
Experimental: This homogeneous assay format uses immuno-sandwich capture of the phosphorylated analyte and then detection with antibody-coated Alphascreen beads to generate an amplified signal.
Maintain U87MG cells in U87MG growth medium consisting of DMEM (GIBCO 11965-092) supplemented with 10% fetal bovine serum (FBS, GIBCO, 10091-141), 1% nonessential amino acids (GIBCO, 11140-050) and 1% sodium pyruvate (GIBCO, 11360-070). Harvest cells using standard cell culture procedures and then count using Vi-Cell. Plate 100 μL of U87MG cells in growth medium (50,000 cells/well) into Costar #3596 96 well plates and incubate overnight at 37° C., 5% CO2.
Incubate for one h at 37° C., then remove the medium and add 50 μL of 1× SureFire Lysis Buffer (TGR Biosciences SureFire® Kit component) to each well and incubate at room temperature for 10 min with gentle shaking Transfer 6 μL lysate and 10 μL reaction mixture (60 parts reaction buffer/10 parts activation buffer/1 part each of donor and acceptor beads, Perkin Elmer, 6760617R) to a 384 well proxiplate (Perkin Elmer, 6006280) for the p-p70S6 kinase (Thr389) and p-AKT(Ser473) assays. Seal the plate and incubate at RT for 4 h. […] Read the plates on a Perkin Elmer EnVision equipped with a TurboModule using standard AlphaScreen® settings (Ex680 nm and Em520-620 nm). […]

## CO[C@@H](C)Cn1c(=O)n(C)c2cnc3ccc(-c4cncc(C(C)(C)O)c4)cc3c21 [Example 1, 8-[5-(1-Hydroxy-1-methylethyl)pyridin-3-yl]-1-[(2S)-2-methoxypropyl]-3-methyl-1,3-dihydro-2H-imidazo[4,5-c]quinolin-2-one]
[1]
  pIC50: 7.26
[2]
  pIC50: 7.10
PI3Kb
  pIC50: 7.11
[3]
  pIC50: 6.97
[4]
  pIC50: 7.49
[5]
  pIC50: 6.69
[6]
  pIC50: < 6.70
[7]
  pIC50: 6.85
[8]
  pIC50: 7.06
[9]
  pIC50: 7.59
AKT1(pT308)
  pIC50: 6.97
